Assay type in all cases: cell-based, human
One assay deals with Jurkat cells. The experiment in a line: Cell viability assay (trypan blue exclusion). To be noted: 200 μM. Here is the method:
Jurkat cells (2.0×10^5 cells/mL) were seeded with 1-4 at 200 μM in 6-well T. C. plates. Aliquots of cell suspension (20 μL) were removed on a daily basis diluted with either PBS (20 μL) or trypan blue solution (20 μL) and cell viability was determined by using the standard trypan blue exclusion method; three replicate counts were taken for each condition.

A further assay relates to p21WAF1/Cip1 promoter. The experiment in a line: Luc-p21WAF1/Cip1 luciferase reporter gene assay in AD293 (HEK) cells. On the procedure: The plasmid Luc-p21^Cip1/WAF1 (a gift from Vogelstein Laboratory, JHMI, Baltimore, Md.) was amplified and purified utilizing a plasmid maxi kit (Cat. No. 12163. Qiagen, Valencia, Calif.) following the manufacturer's protocol. HEK cells (2.5×10^5) were seeded in 3.0 mL medium and grown in 6-well T. C. plates. Transfection was performed using lipofectamine 2000 (Cat. No. 11668-019, Invitrogen, Carlsbad, Calif.) following the protocol supplier's protocol. Cells were trypsinized 24 h after transfection and seeded at 250,000 cells per well with concentrations of 1-4 shown in FIG. 3a or 1, 5, and ManNAc plus 5 at the concentrations shown in FIG. 3c. After 72 h, the cells were trypsinized, counted and lysed in 300 μL of luciferase cell culture lysis buffer and diluted five-fold in the same buffer. Luminometry was performed utilizing the ‘Luciferase Assay System’ (Cat. No. 1500, 4550, Promega, Madison, Wis.) following supplier's protocol. Luciferase Assay Reagent (100 μL) was added to the cell lysate (20 μL) in luminometer tubes (Cat. No. 55.476, Sarstedt, Newton, N.C.) and the luminescence was measured immediately using a Berthold Sirius Luminometer. The final values were normalized relative to ethanol-treated controls and reported on a per cell basis.
(In general: In a reporter assay the amount or activity of a reporter protein is the signal.)

Assay [1] concerns sialic acid biosynthesis in Jurkat cells. The experiment in a line: Assay for total sialic acid production (periodate-resorcinol). Particulars: three days. On the procedure: Jurkat cells (5.0×10^6 cells in 10 mL medium) were incubated with 1-5 at various concentrations. […] The cell lysates were analyzed by using an adapted version of the periodate-resorcinol assay (36, 59) with the periodic acid oxidation step performed on ice to allow quantification of total (i.e., free monosaccharide plus glycoconjugate-bound) sialic acid. For each assay, a standard curve was obtained using N-acetylneuraminic acid (Pfanstiehl, Waukegan, Ill.) for calibration.

Take `CCCC(=O)OC[C@H]1OC(OC(=O)CCC)[C@@H](NC(C)=O)[C@@H](OC(=O)CCC)[C@@H]1OC(=O)CCC` (stereo partly drawn) [compound 1, 2-Acetylamino-2-deoxy-1,3,4,6-tetra-O-butanoyl-α,β-D-mannopyranoside]: the “reduced cell viability in trypan blue assay” value in the assay on Jurkat cells is on record as “exhibited reduced cell viability”. Moreover, the “concentration level required for p21WAF1/Cip1 activation” value in the assay on p21WAF1/Cip1 promoter is “micromolar level efficiency”. Moreover, the “gain in efficiency for 1 over 5, relative to the ~10× of the endogenous p21 assay” value in the assay with p21WAF1/Cip1 promoter (luc-p21WAF1/Cip reporter assay) is reported as “even greater”. For the same compound, the total sialic acid result in assay [1] was “large increase in total sialic acid”.

The values above are taken from patent US9315532B2, “Fatty acid carbohydrate hybrid molecules as therapeutic agents and methods thereof” (The Johns Hopkins University, priority 2005, dated 2016).
